Source: patent US7572439B2, “Enzyme disruption of bacterial biofilms” (priority 2002, dated 2009)
Marks after values point to notes of the source that are not given here.

Key:
[1] = test system: S. epidermidis; assay: Killing of bacteria in lysostaphin-coated Angiocath catheters; type: cell-based; conditions: for CFU (n = 2): catheter coating 0.1 mg/ml; for log reduction from the control sample: coated catheters
Description: (§1) Coating of Catheters. The needles from the AngioCath catheters were removed and disposed. Using a 1 ml syringe, the catheters were coated with 200 μl of a 0.1 mg/ml solution of lysostaphin. The catheters were incubated for 1 hour, unless otherwise specified, at room temperature. The catheters were then washed with 50 ml of phosphate buffered saline using a peristaltic pump with a flow rate of 1.5 ml/minute. The catheters were then inoculated with 120 μl of a ˜5×10^4 CFU/ml solution of bacteria (diluted in TSB) and incubated for 2 hours at 37° C. The catheter effluent was then streaked onto a blood agar plate and incubated overnight at 37° C.

[2] = test system: S. aureus biofilms; assay: Biofilm assay: S. aureus biofilms in 96 well plates or plate inserts, safranin stain or SEM; type: cell-based; conditions: 50 μg/ml in PBS, three hours
[3] = test system: SA5; assay: Adherence of bacteria to catheters; type: cell-based, S. aureus
Description: Adherence of Bacteria to Catheters. Lysostaphin coated catheters were placed in 2 ml of a 0.1 mg/ml solution of lysostaphin for 2 hours with shaking at 37° C. to coat the outside of the catheter. They were then washed and placed in a 5×10^4 CFU/ml solution of SA5 and incubated for 3 hours at 37° C. 40 μl of the bacterial solution was streaked on to blood agar plates and incubated at 37° C. overnight. The catheters were incubated in 2 ml TSB overnight at 37° C. and examined for growth. Untreated catheters were washed with 50 ml PBS and then inoculated with 120 μl of a 5×10^6 CFU/ml solution of bacteria and incubated for 2 or 24 hours. The catheter effluent was then streaked onto blood agar plates and placed at 37° C. overnight. The catheters were washed with 50 ml PBS and the last ml of wash was collected, and 100 μl was streaked onto blood agar plates and incubated at 37° C. overnight. The catheters were then incubated in 1 ml TSB at 37° C. overnight and observed for growth.

[4] = test system: S. aureus; assay: Killing of bacteria in lysostaphin-coated Angiocath catheters; type: cell-based
Description: Two Angiocath catheters (Becton Dickinson) were incubated with 200 PI of a 100 μg/mL solution of lysostaphin, while two others were incubated in PBS. The catheters were allowed to incubate overnight at 4° C. The following morning the catheters were washed with 50 ml PBS using a pump with a flow rate of 1.5 ml/minute. Once the catheters were washed, S. aureus SA5 was diluted in PBS to a percent transmittance of 40. A 1:10,000 dilution of this solution was made, and 100 μl was added to each catheter. The catheters were allowed to incubate for two hours at 37° C. Following incubation, the catheter effluent was plated onto blood agar plates and put in the incubator overnight at 37° C. The colonies on the plates were counted the following morning.
as §1

[5] = test system: biofilms of S. aureus SA113; assay: Kinetic effect on established biofilms: absorbance at 650 nm and safranin staining; type: cell-based; conditions: for absorbance of biofilms at 650 nM: 6.25 μg/ml in PBS
Description: Oxacillin and vancomycin have often been used in antibiotic susceptibility studies of S. aureus biofilms. […] Twenty four-hour biofilms in polystyrene 96-well tissue culture plates were treated with serial dilutions of lysostaphin, oxacillin, and vancomycin (FIG. 7).
In order to examine the kinetic effect of lysostaphin, oxacillin and vancomycin on biofilms, the absorbance of established biofilms in a 96-well tissue culture plate was measured over time (0-3 hrs and 24 hrs). Tissue culture wells containing biofilms of S. aureus SA113 were incubated with serial dilutions of lysostaphin ([…]), oxacillin ([…]), or vancomycin ([…]) for 24 hours, and the absorbance at 650 nm was monitored every 20 minutes for the first 3 hours and then again at 24 hours. The absorbance of the lysostaphin-treated biofilms dropped from approximately 0.35 at time zero to 0.125 after 3 hours of treatment and dropped to near base line (0.04) by 24 hrs when treated with a dose of lysostaphin of 6.25 μg/ml in PBS (FIG. 7). […] Since antimicrobials like oxacillin or vancomycin are effective against actively metabolizing bacteria, a similar experiment was conducted but the biofilms were incubated with the three anti-microbials in bacterial media (TSB). Very similar results were also found when the assay was conducted in TSB rather than PBS.
The capacity of the three agents to disrupt S. aureus biofilms in polystyrene wells can be visualized by comparing the staining intensity of treated wells versus control (buffer-treated) wells.

[6] = test system: S. aureus; assay: Pre-treatment of catheterized mice with lysostaphin before S. aureus challenge; type: in vivo; conditions: for CFUs catheter / CFUs heart / CFUs liver: rinsed; for Animals infected: rinsed after 22 hours, 10^4 S. aureus, 4 days
Description: Jugular vein catheterized mice were pretreated with one or two doses of lysostaphin via catheter prior to being challenged with S. aureus as in Example 4. The mice received either one dose of lysostaphin (40 mg/kg) 24 hours pre-challenge or two doses of lysostaphin (40 mg/kg) 24 hours and 2 hours pre-challenge. Lysostaphin solutions were left in the catheters during challenge. Control mice received standard Phosphate Buffered Saline (PBS). The mice were sacrificed four days post-challenge.
In the above example, the lysostaphin solution was left in the catheters at the time of bacterial challenge, so it could be argued that this lysostaphin in solution was protecting the catheters from S. aureus infection. In order to perform a more rigorous experiment, Catheterized mice were instilled with a single dose of 40 mg/kg lysostaphin in 200 ul PBS through the catheter. One group also received a subsequent 50 ul of lock solution containing the same concentration of lysostaphin as the pre-instillation dose. Twenty two hours later, the catheters of all of these mice were rinsed thoroughly with PBS. Two hours post-rinsing, the animals were challenged with 10^4 S. aureus. The animals were sacrificed 4 days post S. aureus challenge and the catheters and organs processed for bacteria.

[7] = 40 mg/kg i.c., no lock, results from the one infected animal

lysostaphin
CFU (n = 2) ([1]; S. epi 380): 4 CFU | CFU (n = 2) ([1]; S. epi 1175): 68 CFU | CFU (n = 2) ([1]; S. epi 35984): 16 CFU | log reduction from the control sample ([1]; S. epidermidis 1175): 1.1 log | log reduction from the control sample ([1]; S. epidermidis ATCC 35984): 1.8 log | log reduction from the control sample ([1]; S. epidermidis type 380): 2.2 log | biofilm disruption (safranin stain) ([2]; S. aureus strain MBT 5040 (MRSA), room temperature): completely disrupted | biofilm disruption of lysostaphin-resistant strains (safranin stain) ([2]; lysostaphin-resistant S. aureus): failure of lysostaphin to disrupt biofilms | growth after overnight incubation of catheters in TSB ([3]; after 3 hours in bacterial solution): the catheters remained sterile | clearing of bacterial solution by coated catheters ([3]; catheters coated inside and outside, 5×10^4 CFU/ml SA5, 3 hrs): cleared the solution | CFU ([4]; Angiocath, coating 100 μg/ml overnight 4° C., SA5 two hours 37° C.): 0 CFU | CFU (n = 2) ([4]; Table 13, AngioCath, coating concentration 0.1 mg/ml): 0 CFU | CFU (n = 2) ([4]; catheter coating 0.1 mg/ml, MRSA (MBT5040)): 1 CFU | CFU (n = 2) ([4]; catheter coating 0.1 mg/ml, SA5): 1 CFU | CFU (n = 2) ([4]; catheter coating 0.1 mg/ml, SA8): 0 CFU | reduction of bacterial counts ([4]; catheters coated 5 minutes with 0.1 mg/ml): 98.7% | reduction of bacterial counts ([4]; catheters coated 10 minutes with 0.1 mg/ml): 99.4% | reduction of bacterial counts ([4]; catheters coated 15 minutes with 0.1 mg/ml): completely cleared | clearing of bacteria from coated catheters ([4]; catheters incubated with SA8): completely cleared | CFU recovered from the catheters, on average ([4]; coated catheters incubated with MRSA (MBT5040)): 1 CFU | clearing of bacteria from coated catheters ([4]; vs 493 CFU's from control catheters): completely cleared of bacteria | absorbance of biofilms at 650 nM ([5]; 24 hrs): ~0.04 | absorbance of biofilms at 650 nM ([5]; after 3 hours): 0.125 | absorbance of biofilms at 650 nM ([5]; time zero): approximately 0.35 | lowest concentration that cleared biofilms (safranin) ([5]; in PBS, 24 hours): 0.8 µg/mL | effect on absorbance of biofilms ([5]; in TSB, 24 hours (data not shown)): reduced the absorbance of biofilms to near background | effect on absorbance of S. aureus biofilms over time (FIG. 7 legend) ([5]; lysostaphin 6.25 cg/ml, vancomycin 800 cg/ml, oxacillin 400 cg/ml): immediate and continuous drop in the absorbance | CFUs catheter ([6]; 40 mg/kg i.c. and lock): 0 CFUs | CFUs heart ([6]; 40 mg/kg i.c. and lock): 0 CFUs | CFUs liver ([6]; 40 mg/kg i.c. and lock): 0 CFUs | Animals infected ([6]; 40 mg/kg i.c. and lock): 0/4 | CFUs catheter ([6]; 40 mg/kg i.c., no lock): 0 CFUs | Animals infected ([6]; 40 mg/kg i.c., no lock): 1/4 | CFUs heart [6, 7]: (287)^a CFUs | CFUs liver [6, 7]: (341)^a CFUs | infection status of pretreated mice ([6]; 40 mg/kg via catheter 24 hours or 24 hours and 2 hours pre-challenge, solution left in catheters, four days post-challenge): All eight treated mice were S. aureus free | protection of catheters from formation of S. aureus biofilms ([6]; single dose of 40 mg/kg pre-instilled, excess rinsed out): will protect the catheters from formation of S. aureus biofilms
